Data on four compounds can be found in ChEMBL document CHEMBL1201862, “PubChem BioAssay data set” (2004).

Molecules are shown by their SMILES.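 Five concentrations, 48 hours, 96-well plates. GI50 = concentration required for 50% inhibition of growth.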 Calls of active or inactive are those of the source. Cut-off read from the data, not from the text of the source: active = GI50 up to about 1.1 µM and inactive = higher. Bounds are passed on as bounds.

Test in all cases: NCI-60 cell line screen, 48 h
Experiment [1] relates to UACC-62.
Experiment [2] deals with SNB-19.
For experiment [3], the system named is BT-549.
The test system of experiment [4] is PC-3.
In experiment [5] the test system is HCT-15.
Experiment [6] deals with OVCAR-8.
The test system of experiment [7] is CAKI-1.
Experiment [8] concerns A498.
Experiment [9] concerns TK-10.
Experiment [10] relates to HCC 2998.
Experiment [11] has as its system K562.
In experiment [12] the test system is NCI/ADR-RES.
Experiment [13] relates to SR.
In experiment [14] the test system is SF-268.
The test system of experiment [15] is NCI-H460.
The test system of experiment [16] is OVCAR-5.
Experiment [17] relates to HOP-92.
In experiment [18] the test system is UACC-257.
The subject of experiment [19] is SK-MEL-2.
The test system of experiment [20] is RXF 393.

As for `O=[N+]([O-])/C(Cl)=C(\NCCN/C(C(Cl)=C(Cl)Cl)=C(/Cl)[N+](=O)[O-])C(Cl)=C(Cl)Cl`, the GI50 is 31.2 µM (inactive) in experiment [1]; 92.9 µM (inactive) in experiment [2]; 69 µM (inactive) in experiment [3]; 43.6 µM (inactive) in [4]; 36.6 µM in experiment [5]; 40.3 µM (inactive) in experiment [6]. Moreover, the GI50 in [7] was > 100 µM (inactive); in [8], 48.1 µM (inactive); in experiment [9], 71.4 µM (inactive); in [10], 83.6 µM (inactive); in experiment [11] it was 27.8 µM (inactive); in experiment [12], 89.7 µM (inactive). The GI50 was 17.1 µM (inactive) in experiment [13]; 40.8 µM (inactive) in [14]; 49.5 µM (inactive) in experiment [15]; > 100 µM (inactive) in [16]; 17.9 µM (inactive) in experiment [17].

In the case of `COc1cc2c(cc1OC)[C@@H]1[C@H](C#N)C(=O)C(C)(C)N1CC2`, the GI50 in [1] is > 100 µM (inactive); in experiment [2] it was > 100 µM (inactive); in [3], > 100 µM (inactive); in experiment [4], > 100 µM (inactive); in experiment [5] it was above 100 µM; in experiment [6], > 100 µM (inactive). Moreover, the GI50 in experiment [7], in experiment [8], in [9], in experiment [10], in experiment [11] and in experiment [12] was > 100 µM (inactive) each time. Moreover, the GI50 in [13], in [18], in [15], in [16] and in [17] was > 100 µM (inactive) in each case.

For the compound `CCCCn1c(C)c(C(=O)OCC)c2cc(OCc3ccc(C(=O)Nn4c(C)ccc4C)cc3)c(Br)cc21`, the GI50 was > 100 µM (inactive) in [1]; > 100 µM (inactive) in experiment [2]; > 100 µM (inactive) in experiment [3]; > 100 µM (inactive) in experiment [4]; above 100 µM in experiment [5]; > 100 µM (inactive) in [6]. Also, the GI50 in experiment [7], in [8], in experiment [9], in [10], in experiment [11] and in experiment [12] was > 100 µM (inactive) throughout. For the same compound, the GI50 in [13], in experiment [14], in [19], in experiment [18], in experiment [15] and in experiment [16] was > 100 µM (inactive) in each case. For the same compound, the GI50 in experiment [17] is > 100 µM (inactive).

With `CCOC(=O)COc1ccc(/C=C/C(=O)c2ccc(OC)cc2)cc1`, the GI50 in [20] is 18.1 µM (inactive); in experiment [1], 22.5 µM (inactive); in [2], 41.8 µM (inactive); in experiment [3] it was 28.5 µM (inactive); in experiment [4], 22.9 µM (inactive); in experiment [5], 24.4 µM. The GI50 in [6] is 24.5 µM (inactive); in experiment [7] it was > 10 µM (inactive); in [8], 29.6 µM (inactive); in [9] it was 42 µM (inactive); in experiment [10], 23.7 µM (inactive); in experiment [11], 40.6 µM (inactive). For the same compound, the GI50 was 44.7 µM (inactive) in experiment [12]; 23.2 µM (inactive) in [13]; 22.3 µM (inactive) in [14]; 27.7 µM (inactive) in [19]; 23.1 µM (inactive) in [18]; 37.4 µM (inactive) in [16]. Further, the GI50 in [17] is 16.6 µM (inactive).
